PMC11892739, “Site-specific molecular glues for the 14-3-3/Tau pS214 protein–protein interaction via reversible covalent imine tethering” (RSC Medicinal Chemistry, 2025)

System: 14-3-3γ/Tau pS324 interaction
Test: Fluorescence anisotropy 14-3-3γ titration with compound and monovalent Tau pS324 peptide
Format: binding
Conditions: for apparent cooperativity factor (app. α), 14-3-3γ/Tau pS324: 2D titrations, 14-3-3γ titrated at varied compound concentrations, saturation of the ratio
Experimental: FA assays in which 14-3-3γ was titrated to a constant concentration of compound (250 μM) in the presence of the distinct monovalent Tau peptide (10 nM) were performed.
The determined stabilization factors are concentration-dependent (here 250 μM of compound) and might differ based on assay design. […] The app. α-factors of these compounds for both 14-3-3/Tau complexes were determined by 14-3-3γ titrations in the presence of varied concentrations of the particular compound (Fig. 5d and e). Both compounds reached saturation for both 14-3-3γ/Tau complexes enabling accurate determination of the α-factor. The app. α-factors of aldehydes 1 and 18 were plotted for both 14-3-3γ/Tau complexes to investigate phospho-binding site selective cooperativity (Fig. 5f and h). To do so, the stabilization factors at a given compound concentration were plotted against the compound concentration, leading to the determination of the app. α-factors. […]
chromatography (HisTrap high performance cartridges, Cytiva). […] Dialyzed protein was concentrated to ∼40 mg/mL, analyzed by Q -Tof LC/MS, and aliquots were flash -frozen for storage at −80 °C. […] Fractions containing the 14 -3-3 protein were pooled and concentrated to ∼60 mg/mL, analyzed Q -Tof LC/MS, and aliquots were flash -frozen for storage at −80°C.
Fluorescence Anisotropy – compound titration
Compound titration assays were performed by titrating compounds (in 1% DMSO, starting at 500 μM) in a 2-fold dilution series to preformed complex of fluorescein -labeled Tau pS2 (10 nM) and 14 -3-3ζ (100 nM) (which represents approximately 20% bound Tau pS2 peptide to 14 -3-3ζ to allow further complex formation by addition of fragments 1) in FA buffer (10 mM HEPES pH 7.4, 150 mM NaCl, 50 µM TCEP, 0.1% (v/v) Tween20, 0.1% (w/v) BSA). […] Measurements were performed directly after plate preparation, using a Tecan SPARK plate reader at room temperature ( λex: 485±20 nm; λem: 535±25 nm; mirror: automatic; flashes: 30; settle time: 1 ms; gain: optimal; Z -position: calculated from well). […]

| Structure (SMILES) | SF250μM for the 14-3-3γ/Tau pS324 complex (250 μM compound, 10 nM Tau pS324 peptide, internal DMSO reference) | apparent cooperativity factor (app. α), 14-3-3γ/Tau pS324 |
| --- | --- | --- |
| CCc1ccc(-c2nccn2-c2ccc(C=O)c(Br)c2)cc1 [Compound 18] | 3.2 | 3.6 |
| O=Cc1ccc(-n2ccnc2-c2ccccc2)cc1Br [Compound 1] |  | 6.8 |
